pIC50: −log10 of the molar value. Marks after values point to notes of the source that are not given here.
Columns and labels:
Type in all cases: binding, rabbit
1X-Ab = test: Competitive antigen ELISA, cross-reactivity of 1X-Ab; conditions: for % Cross-Reaction 1X-Ab: competitive antigen ELISA, 0 = absence of inhibition or inhibition no higher than 40% at the highest concentration tested (5×10^−3 M)
Protocol: (§1) Competitive Antigen ELISA
(§2) Buffers and water without additives are filtered through millipore filters and kept for 1 week. BSA, antibodies, Tween™ 20 and horse radish peroxidase conjugates are added to these buffers and water just prior to use. Urine samples are usually collected 4 hours after drinking a cup of coffee (instant or brewed with approximately 100 mg of caffeine per cup) and stored at −80° C. The urine samples are diluted 10 times with sodium phosphate buffer (620 mosm, pH 7.50) and are subsequently diluted with water to give concentrations of AAMU and 1X no higher than 3×10^−6 M in the ELISA. All the pipettings are done with an eight-channel pipette, except those of the antibody and sample solutions. Starting with the last well, 100 μL of a carbonate buffer (100 mM, pH 9.6) containing 2.5 μg mL-1 antibodies are added to each well. After 90 min. at room temperature, the wells are washed three times with 100 mL of TPB: isotonic sodium phosphate buffer (310 mosm, pH 7.50) containing 0.05% Tween™ 20.
(§3) After the initial wash, unoccupied sites are blocked by incubation for 90 min. at room temperature with 100 μL TBP containing 3% BSA. The wells are washed four times with 100 […] TPB. […] The microplate is gently shaken with an orbital shaker at room temperature for 3-4 hours. The wells are washed three times with 100 μL TPB containing 1% BSA and three times with water containing 0.05% Tween™ 20. To the washed plate is added 150 μL of a substrate buffer composed of citric acid (25 mM) and sodium phosphate dibasic buffer (50 mM, pH 5.0) containing 0.06% hydrogen peroxide and 0.04% o-phenylenediamine hydrochloride.
as §2, with “were” for “are”, “They were” for “The urine samples are”, “mL^−1” for “mL-1”, “was pipetted.” for “are added to each well.”, “μL” for “mL”
(§4) After the initial wash, unoccupied sites were blocked by incubation for 90 min. at room temperature with 100 μL TBP containing 3% BSA. The wells were washed four times with 100 μL TPB. […] The microplate was gently shaken with an orbital shaker at room temperature for 3-4 hours. The wells were washed three times with 100 μL with TPB containing 1% BSA and three times with water containing 0.05% Tween™ 20. To the washed plate was added 150 μL of a substrate buffer composed of citric acid (25 mM) and sodium phosphate dibasic buffer (50 mM, pH 5.0) containing 0.06% hydrogen peroxide and 0.04% o-phenylenediamine hydrochloride. After 20 min. at room temperature with shaking, the reaction was stopped with 50 μL of 2.5 N HCl.
(§5) The cross reactivities of AAMU-Ab and 1X-Ab were tested using a wide variety of caffeine metabolites and structural analogs (Table 2 below).

1,7-DMU-Ab = test: Competitive antigen ELISA, antibody specificity of 1,7-DMU-Ab; conditions: hypothesized ideal antibody specificity; 0 = no inhibition or no higher than 40% at 5×10^−3 M
Protocol: as §1
(§6) BSA, antibodies, Tween™ 20 and horse radish peroxidase are added to buffers and water just prior to use. Urine samples are usually collected four hours after drinking a cup of coffee (instant or brewed with approximately 100 mg of caffeine per cup) and stored at −20° C. as 1-mL aliquots in 1.5-mL microtubes. For the ELISA, the urine samples are diluted with isotonic sodium phosphate buffer, pH 7.5 (310 mosM) to give concentrations of caffeine, 1.7-DMX and 1,7-DMU no higher than 3×10^−6 M in the microtiter plate wells. Wells of the ELISA plate are washed with a Nunc-Immuno wash 12 washer. Sixteen milliliters of a solution of 6.6 μg ml^−1 of isolated IgG antibodies is prepared in a 100 mM sodium carbonate buffer, pH 9.6, and 150 μL of this solution is pipetted in each well of a microtiter plate using a eight channel pipet (Brinkmann Transferpette™-8 50-200 μL) and 200 μL Flex tips from Brinkmann). After coating the wells with antibodies at 4° C. for 20 hours, the wells are washed 3 times with the isotonic sodium phosphate buffer containing 0.05% Tween™ 20 (IPBT) and properly drained by inverting the plate and absorbing the liquid on to a piece of paper towel. Thirty milliliters of a solution of a IPBT solution containing 1% BSA is prepared and 150 μL of this solution is pipetted in each well using a eight channel pipet (Brinkmann Transferpet-te™-8 50-200 μL) and 200 μL yellow tips (Sarstedt yellow tips for P200 Gilson Pipetman). After 3 hours at room temperature, the wells are washed 3 times with IPBT solution and drained. Samples of 400 μL for determination of caffeine, 1,7-DMX and 1,7-DMU are prepared in 1.5-mL microtubes using Sarstedt yellow tips and a P200 Gilson Pipetman. Then, 200 μL of each sample are pipetted in duplicate in a Falcon 96-well microtest tissue culture plate according to the pattern shown in FIG. 23, using Sarstedt yellow tips and a P200 Gilson Pipetman. Using an eight channel pipet (Brinkmann Transferpette™-8 50-200 μL) and changing the tips of the eight channel pipet (200 μL Flex tips from Brinkmann) at each row, 150 μL of samples are transferred in the corresponding wells of a 96-well ELISA microtiter plate coated with antibodies. After the addition of the samples, the microtiter plates are covered and left standing at room temperature for 2 h. While the plate is left standing the substrate buffer without the hydrogen peroxide and o-phenylenediamine hydrochloride is prepared (25 mM citric acid and 50 mM sodium phosphate dibasic buffer, pH 5.0). The microtiter plate is washed 3 times with the IPBT solution and 3 times with a 0.05% Tween 20 solution and drained. Then, 50 […] of hydrogen peroxide and 40 mg of o-phenylenediamine are added to the substrate buffer. One hundred fifty microliters (150 μL) of the substrate buffer solution is then added to each well using a eight channel pipet (Brinkmann Transferpette™-8 50-200 μL) and 200 μL Flex tips (Brinkmann). The microtiter plate is covered and shaken for 25-30 min at room temperature and the enzymatic reaction is stopped by adding 50 μL/well of a 2.5 N HCl solution using an eight channel pipet (Brinkmann Transferpette™-8 50-200 μL) and 200 μL Flex tips (Brinkmann).

Caffeine-Ab = test: Competitive antigen ELISA, antibody specificity of caffeine-Ab; conditions: hypothesized ideal antibody specificity; 0 = no inhibition or no higher than 40% at 5×10^−3 M
Protocol: as §1, §6

AAMU-Ab = test: Competitive antigen ELISA, cross-reactivity of AAMU-Ab; conditions: competitive antigen ELISA; 0 = absence of inhibition or inhibition no higher than 40% at the highest concentration tested (5×10^−3 M)
Protocol: as §1, §2, §3
as §2, with “were” for “are”, “They were” for “The urine samples are”, “mL^−1” for “mL-1”, “was pipetted.” for “are added to each well.”, “μL” for “mL”
as §4, §5

1,7-DMX-Ab = test: Competitive antigen ELISA, antibody specificity of 1,7-DMX-Ab; conditions: hypothesized ideal antibody specificity; 0 = no inhibition or no higher than 40% at 5×10^−3 M
Protocol: as §1, §6

| Structure (SMILES) | % Cross-Reaction 1X-Ab (1X-Ab) [%] | % Cross-reaction 1,7-DMU-Ab (1,7-DMU-Ab) [%] | % Cross-reaction Caffeine-Ab (Caffeine-Ab) [%] | % Cross-Reaction AAMU-Ab (AAMU-Ab) [%] | % Cross-reaction 1,7-DMX-Ab (1,7-DMX-Ab) | pIC50 (1X-Ab; read-out: concentration required for 50% inhibition in the competitive antigen ELISA, 1X-Ab) |
| --- | --- | --- | --- | --- | --- | --- |
| O=c1[nH]cnc2nc[nH]c12 [Hypoxanthine] | 0 | 0 | 0 | 0 | 0% | – |
| CC(=O)Nc1c(N)n(C)c(=O)n(C)c1=O [5-Acetamino-6-amino-1,3-dimethyluracil] | 0 | 0 | 0 | 0 | 0% | – |
| Cn1c(=O)c2c(ncn2C)n(C)c1=O [1,3,7-Trimethyl Xanthine (Caffeine), 1,3,7-trimethylxanthine] | 0 | 0 | 100 | 0 | 0^a % | – |
| Cn1c(=O)c2[nH]c(=O)[nH]c2n(C)c1=O [1,3-Dimethyluric acid] | – | 0 | 0 | – | 0% | – |
| Cn1c(=O)[nH]c2nc[nH]c2c1=O [1-Methyl Xanthine (1X), 1-methylxanthine] | 100 | 0 | 0 | 0 | 0% | 5.00 |
| Cn1c(=O)[nH]c2ncn(C)c2c1=O [1,7-Dimethyl Xanthine (Paraxanthine), 1,7-dimethylxanthine] | 0.5 | 0 | 0 | 0 | 100% | – |
| Cn1c(=O)[nH]c(=O)c2c1[nH]c(=O)n2C [3,7-Dimethyluric acid] | – | 0 | 0 | – | 0% | – |
| Cn1c(=O)[nH]c2[nH]c(=O)[nH]c(=O)c21 [7-Methyluric acid] | – | 0 | 0 | – | 0% | – |
| Cn1c(=O)c2c([nH]c(=O)n2C)n(C)c1=O [1,3,7-Trimethyluric acid] | – | 0 | 0 | – | 0% | – |
| Cn1cnc2[nH]c(=O)[nH]c(=O)c21 [7-Methyl Xanthine] | 0 | 0 | 0 | 0 | 0% | – |
| Cc1nc2[nH]c(=O)[nH]c(=O)c2[nH]1 [8-Methyl Xanthine] | 0 | 0 | 0 | 0 | 0% | – |
| O=c1[nH]c(=O)c2[nH]c(=O)[nH]c2[nH]1 [Uric acid] | 0 | 0 | 0 | 0 | 0% | – |
| Cn1c(=O)[nH]c(=O)c2[nH]cnc21 [3-Methyl Xanthine] | 0 | 0 | 0 | 0 | 0% | – |
| Nc1nc2nc[nH]c2c(=O)[nH]1 [Guanine] | 0 | 0 | 0 | 0 | 0% | – |
| Cn1c(=O)[nH]c2[nH]c(=O)n(C)c2c1=O [1,7-Dimethyluric acid, 1,7-dimethyluric acid] | 0 | 100 | 0 | 0 | 0% | – |
| O=c1cc[nH]c(=O)[nH]1 [Uracil] | 0 | 0 | 0 | 0 | 0% | – |
| Cn1c(=O)[nH]c(=O)c2[nH]c(=O)[nH]c21 [3-Methyluric acid] | – | 0 | 0 | – | 0% | – |
